From patent US8445457B2, “Oral pharmaceutical solutions containing telbivudine” (Novartis AG, priority 2007, dated 2013)

Test: Pre-formulation telbivudine stability versus pH at elevated temperature
Assay type: physicochemical
Conditions: investigated pH 2-9, 50° C., from assay and thymine content
Method: During pre-formulation, telbivudine stability is investigated within a range of pH from 2-9, at elevated temperature 50° C. […] The pH of the oral solution is a highly relevant parameter, due to the influence pH on the retardation of microbial growth in the solution during storage.

## Cc1cn([C@@H]2C[C@@H](O)[C@H](CO)O2)c(=O)[nH]c1=O [telbivudine, β-L-thymidine/2′-deoxy-L-thymidine]
  pH range optimal for drug substance stability: 3-9
